Data from patent US9572881B2, “Halogenated compounds for photodynamic therapy” (Nanoquantum Sciences, Inc., priority 2012, dated 2017).
Several values for one entry are separate records, joined by “and”; a condition that tells them apart may be missing. Equal entries are not always repeated.

What was measured:
[1] = Absorption spectra and extinction coefficients of dyes; assay type: physicochemical; details: for Extinction coefficient ε at λmax (abs): synthesis example, no unit
Procedure: Absorption spectra were measured at RT on a Perking Elmer Lambda 35 UV/Vis spectrophotometer. […] The stock solution was diluted (1:2000) and the absorbance was measured in a 5-cm standard quartz cell. All dye concentrations were in the range of 1.1 to 2.0×10^−7 M. The extinction coefficients were calculated according to Lambert-Beer's law.

[2] = Fluorescence emission spectra and quantum yield relative to HITC; assay type: physicochemical; details: for QY (fluor): given as fraction in synthesis example
Procedure: Fluorescence spectra for the dyes were determined at RT on a Varian Cary Eclipse spectrofluorometer in a standard 1-cm quartz cell. The spectra were corrected. All concentrations of the fluorophores were chosen to be between 0.2 and 1.0 μM.
For the determination of the quantum yields (QY), the integrated relative intensities of the dyes or dye-protein conjugates, were measured against HITC as the reference. All absorbances at excitation wavelength (λexc) were in the range of 0.04-0.08 (when measured in a 1-cm cell).
The QY of each sample was independently measured 3-4 times and the average value was calculated.

[3] = Phototoxicity (glow lamp) and dark toxicity by hemolysis of bovine erythrocytes; assay type: cell-based; details: bovine, bovine erythrocytes, Glow Lamp
Procedure: (§1) Bovine erythrocytes were isolated from blood plasma stored with sodium citrate. 1 mL of bovine blood was treated at centrifuge (3,000 rpm) for 10 min to precipitate erythrocytes. The supernatant was decanted, 2 mL of physiological solution were added, treated and erythrocytes were precipitated with centrifuge. The washing procedure was repeated for 3 times and the precipitated erythrocytes were collected. […] Cells were dye-incubated for 45 minutes at 37° C. in the dark. Then the examined suspensions of cells (erythrocytes) were placed at a distance of 30-cm from a 250 W glow red-lamp equipped with a water-based heat filter and irradiated with occasional stirring. After irradiation, cells were stored at 4° C. for 15 hours. […] The hemolysis level (percentage of hemolyzed cells) was determined as the ratio of absorbances of the supernatant and a solution of 100% hemolysed cells. The 100% hemolysis was taken as the value obtained when the given number of erythrocytes were suspended in distilled water.

bovine erythrocytes = assay: as above; assay type: cell-based; details: Dark
Procedure: as §1

[4] = Singlet oxygen quantum yield, DPBF scavenger method in ethanol; assay type: physicochemical; details: measured in ethanol, 650 nm laser, ICG reference
Procedure: The modified relative photochemical method of Spiller W. et al. (J. Porphyrins Phthalocyanines, 1998, V. 2, 145-158) utilizing 1,3-diphenylisobenzofuran (DPBF) as a chemical scavenger was used to determine the photosensitiser's singlet oxygen quantum yields (ΦΔ) in ethanol solutions.
Ethanolic solutions containing DPBF (10 μM) and sensitizers with absorbance (optical density) in a range between 0.09 and 0.10 at 650 nm (measured in a standard 1-cm quartz cell) were prepared. Samples were saturated with oxygen by bubbling. Next, 3 mL of the solution were placed in a 1-cm cell equipped with a stirring bar and a 10 mW, 650 nm diode laser was hermetically attached to the top of cuvette so as to avoid solvent evaporation and to provide a light beam direction from top to bottom of the cuvette. The solution in the cuvette was irradiated with the diode laser under continuous stirring for a certain time. DPBF consumption was determined by monitoring DPBF bleaching over irradiation time using absorption spectroscopy at 411 nm (extinction coefficient 22,000 M^−1 cm^−1). At least six absorption spectra were obtained for each solution at different irradiation times until the DPBF absorbance reduced at least to the 10% of the initial absorbance.
The decrease of DPBF absorbance at 411 nm versus irradiation time was plotted for each photosensitizer and the DPBF degradation rate constant (K) characterizing the reaction rate of singlet oxygen with DPBF in presence of a sensitizer was calculated.

| Compound | Absorption max. ([1]; Methanol) [nm] | Absorption max. ([1]; Water) | Emission max. ([2]; Methanol) [nm] | Fluorescence quantum yield ([2]; Methanol) [%] | Emission max. ([2]; Water) | other results |
| --- | --- | --- | --- | --- | --- | --- |
| CN1\C(=C/C=C/C=C/C=C/C2=[N+](C)c3ccc(I)cc3C2(C)C)C(C)(C)c2cc(I)ccc21.[I-] [I-25] | 753 | 750 nm | 784 | 30 | 779 nm | Absorption max. ([1]; Chloroform): 771 nm; Emission max. ([2]; Chloroform): 801 nm; hemolysis at 60 min, 0.1 µM ([3]; exposure 60 min): 39%; hemolysis at 30 min, 0.5 µM ([3]; 0.5 μM, exposure 30 min): 83%; Hemolysis (bovine erythrocytes; 50 μM): 51%; Singlet oxygen generation quantum yield ΦΔ [4]: 20% |
| C[N+]1=C(C=CC=CC=CC=C2N(CCCCS(=O)(=O)[O-])c3ccc(S(=O)(=O)O)cc3C2(C)C)C(CCCCCC(=O)O)c2c(I)cc(I)cc21 (centres unmarked) [I-83, 4-(2-7-[3-(5-carboxypentyl)-4,6-diiodo-1-methyl-3H-2-indoliumyl]-2,4,6-heptatrienylidene-3,3-dimethyl-5-sulfo-2,3-dihydro-1H-1-indolyl)-1-butanesulfonate] | 750 | 748 nm | 779 | 43 | 776 nm | Absorption max. ([1]; Conjugates with IgG (antibody)): 755 nm; Emission max. ([2]; Conjugates with IgG (antibody)): 776 nm; Fluorescence quantum yield ([2]; Water): 22% |
| CN1\C(=C/C=C/C=C/C=C/C2=[N+](C)c3cc(I)c(I)c(I)c3C2(C)CCCCCC(=O)O)C(C)(CCCCCC(=O)O)c2c1cc(I)c(I)c2I.[I-] (centres unmarked) [I-93] | 755 | 783 nm | 783 | 47 | n.f. |  |
| CN1\C(=C/C=C/C=C/C=C/C2=[N+](C)c3cc(I)cc(I)c3C2(C)CCCCCC(=O)O)C(C)(CCCCCC(=O)O)c2c(I)cc(I)cc21.[I-] (centres unmarked) [I-79, 3-(5-carboxypentyl)-2-7-[3-(5-carboxypentyl)-4,6-diiodo-1,3-dimethyl-2,3-dihydro-1H-2-indolyliden]-1,3,5-heptatrienyl-4,6-diiodo-1,3-dimethyl-3H-indolium iodide] |  |  |  |  |  | Absorption max. ([1]; Chloroform): 763 nm; hemolysis at 60 min, 0.5 µM ([3]; 0.5 μM, exposure 60 min): 75%; hemolysis at 30 min, 1 µM ([3]; 1 μM, exposure 30 min): 80%; Hemolysis (bovine erythrocytes; 50 μM): 4% |
| CN(C)c1ccc(SC2=C(/C=C/C3=[N+](C)c4ccc(I)cc4C3(C)C)CCC/C2=C\C=C2/N(C)c3ccc(I)cc3C2(C)C)cc1.[I-] [I-61] | 792 |  | 812 | 14 |  |  |
| CN1\C(=C/C=C/C=C/C=C/C2=[N+](C)c3cc(I)c(I)c(I)c3C2(C)CCCCCC(=O)N2CC[N+]3(CC2)CC[N+]2(CCNCC2)CC3)C(C)(CCCCCC(=O)N2CC[N+]3(CC2)CC[N+]2(CCNCC2)CC3)c2c1cc(I)c(I)c2I.[Cl-].[Cl-].[Cl-].[Cl-].[Cl-] (centres unmarked) [I-94] | 759 | 695 nm and 756 nm | 788 | 38 | 782 nm | Fluorescence quantum yield ([2]; Water): 1.8% |
| CN1/C(=C\C=C2/CCCC(/C=C/C3=[N+](C)c4ccc(I)cc4C3(C)C)=C2Cl)C(C)(C)c2cc(I)ccc21.[I-] [I-56] | 784 |  | 806 | 16 |  |  |
| CN1\C(=C/C=C/C=C/C=C/C2=[N+](C)c3cc(I)cc(I)c3C2(C)C)C(C)(C)c2c(I)cc(I)cc21.[I-] [I-71, 2-[7-(4,6-diiodo-1,3,3-trimethyl-2,3-dihydro-1H-2-indolyliden)-1,3,5-heptatrienyl]-4,6-diiodo-1,3,3-trimethyl-3H-indolium iodide] | 745 |  | 773 | 46 |  | QY (fluor) ([2]; methanol): 0.46; hemolysis at 60 min, 0.1 µM ([3]; exposure 60 min): 21%; hemolysis at 30 min, 0.5 µM ([3]; 0.5 μM, exposure 30 min): 75%; Hemolysis (bovine erythrocytes; 5 μM): 2%; Hemolysis (bovine erythrocytes; 50 μM): 30%; Singlet oxygen generation quantum yield ΦΔ [4]: 19% |
| CN1/C(=C\C=C2/CCCC(/C=C/C3=[N+](C)c4cc(I)c(I)c(I)c4C3(C)C)=C2Cl)C(C)(C)c2c1cc(I)c(I)c2I.[I-] [I-96] | 787 |  | 808 | 21 |  |  |
| CN1\C(=C/C=C/C=C/C=C/C2=[N+](C)c3cc(Br)c(Br)c(Br)c3C2(C)C)C(C)(C)c2c1cc(Br)c(Br)c2Br.[I-] [I-88, 4,5,6-tribromo-1,3,3-trimethyl-2-[7-(4,5,6-tribromo-1,3,3-trimethyl-2,3-dihydro-1H-2-indolyliden)-1,3,5-heptatrienyl]-3H-indolium iodide] | 748 |  | 778 | 50 |  | Extinction Coefficient ([1]; Methanol): 240,000 M^−1cm^−1; Extinction coefficient ε at λmax (abs) ([1]; methanol): 240,000; QY (fluor) ([2]; methanol): 0.50; Singlet oxygen generation quantum yield ΦΔ [4]: 11% |
| CC1(CCCCCC(=O)NCCS(=O)(=O)O)C(/C=C/C=C/C=C/C=C2\N(CCCS(=O)(=O)O)c3cc(I)c(I)c(I)c3C2(C)CCCCCC(=O)NCCS(=O)(=O)O)=[N+](CCCS(=O)(=O)[O-])c2cc(I)c(I)c(I)c21 (centres unmarked) [I-92] | 764 |  | 794 | 39 |  |  |
| 1-(5-carboxypentyl)-2-[7-(4,6-diiodo-1,3,3-trimethyl-3H-2-indoliumyl)-2,4,6-heptatrienylidene]-3-methyl-3-(4-sulfobutyl)-5-indolinesulfonate [I-72] | 750 | 750 nm | 780 | 41 | 777 nm | Extinction Coefficient ([1]; Water): 270,000 M^−1cm^−1; Extinction coefficient ε at λmax (abs) ([1]; water): 270,000; Fluorescence quantum yield ([2]; Water): 21%; QY (fluor) ([2]; methanol): 0.41; QY (fluor) ([2]; water): 0.21; Singlet oxygen generation quantum yield ΦΔ [4]: 12% |
| CC(C)(C)C1=CC(=C/C=C/C=C/C=C/C2=[N+](CCCS(=O)(=O)[O-])c3ccc(I)cc3C2(C)CCCCCC(=O)O)C=C(C(C)(C)C)O1 (centres unmarked) [I-68] | 794 |  | 826 | 6 |  |  |
| CC1(CCCCCC(=O)N2CC[N+]3(CC2)CC[N+]2(CCNCC2)CC3)C(/C=C/C=C/C=C/C=C2\N(CCCS(=O)(=O)[O-])c3cc(I)c(I)c(I)c3C2(C)CCCCCC(=O)N2CC[N+]3(CC2)CC[N+]2(CCNCC2)CC3)=[N+](CCCS(=O)(=O)[O-])c2cc(I)c(I)c(I)c21.[Cl-].[Cl-].[Cl-] (centres unmarked) [I-91] | 766 |  | 795 | 26 |  |  |
| CC1(CCCCCC(=O)O)C(/C=C/C=C/C=C/C=C2\N(CCCCS(=O)(=O)O)c3ccc(S(=O)(=O)[O-])cc3C2(C)CCCCS(=O)(=O)O)=[N+](CCCS(=O)(=O)O)c2cc(I)c(I)c(I)c21 (centres unmarked) [I-84, 4-[2-7-[3-(5-carboxypentyl)-4,5,6-triiodo-3-methyl-1-(3-sulfopro-pyl)-2,3-dihydro-1H-2-indolyliden]-1,3,5-heptatrienyl-3-methyl-5-sulfo-3-(4-sulfobutyl)-3H-1-indoliumyl]-1-butanesulfonate] |  | 758 nm |  |  | 787 nm | Absorption max. ([1]; Conjugates with IgG (antibody)): 762 nm; Absorption max. ([1]; Phosphate buffer (pH 7.4)): 758 nm; Extinction coefficient ε at λmax (abs) ([1]; water): 270,000; Emission max. ([2]; Conjugates with IgG (antibody)): 787 nm; Emission max. ([2]; Phosphate buffer (pH 7.4)): 787 nm; Fluorescence quantum yield ([2]; Water (PB, pH 7.4)): 20%; QY (fluor) ([2]; water): 0.20 |
| C[N+]1=C(C=CC=CC=CC=C2N(CCCCCC(=O)NCCOCCOCCOCCC(=O)O)c3ccc(S(=O)(=O)[O-])cc3C2(C)CCCCS(=O)(=O)O)C(C)(C)c2c(I)cc(I)cc21 (centres unmarked) [I-89, 1-[5-(2-2-[2-(2-carboxyethoxy)ethoxy]ethoxyethylcarbamoyl)-pentyl]-2-[7-(4,6-diiodo-1,3,3-trimethyl-3H-2-indoliumyl)-2,4,6-heptatrienylidene]-3-methyl-3-(4-sulfobutyl)-5-indolinesulfonate] |  | 750 nm |  |  | 777 nm | Extinction Coefficient ([1]; Water): 270,000 M^−1cm^−1; Fluorescence quantum yield ([2]; Water): 21.5%; Singlet oxygen generation quantum yield ΦΔ [4]: 13% |
| 3-(5-carboxypentyl)-2-[7-(4,6-diiodo-1,3,3-trimethyl-2,3-dihydro-1H-2-indolyliden)-1,3,5-heptatrienyl]-1,1-dimethyl-6-sulfo-8-(1H-benzo[e]indolium)sulfo-nate [I-74] | 760 |  | 793 | 22 |  | QY (fluor) ([2]; methanol): 0.22 |
| 1-(5-carboxypentyl)-2-[7-(4,6-diiodo-1,3,3-trimethyl-3H-2-indoliumyl)-2,4,6-heptatrienylidene]-3,3-dimethyl-5-indolinesulfonate [I-73] | 748 |  | 779 | 41 |  | QY (fluor) ([2]; methanol): 0.41 |
